Counter-ions that a name gives are not always drawn. Like-named read-outs stand apart in the source and are kept apart here. Peptide text beside a SMILES is read from it. * marks the point of attachment. Cbz = O=C(OCc1ccccc1)*
Experiments:
[1] = test system: Vero E6 EGFP cells; assay: Cytotoxicity assessment in dose response without virus infection; conditions: cytotoxicity in the absence of virus, Vero E6 EGFP, 33 µM to 10 nM
[2] = test system: SARS-CoV-2; assay: microbe, parasite or virus in culture
[3] = test system: SARS-CoV-2
[4] = in vitro; conditions: Chlorocebus sabaeus (African green monkey)
[5] = Cytotoxicity assessment in dose response without virus infection; conditions: Chlorocebus sabaeus (African green monkey)
[6] = test system: Vero E6 EGFP cells
[7] = test system: SARS-CoV-2; assay: Primary anti-cytopathicity assay development: control compound profiling, 384-well plates; assay type: cell-based, Severe acute respiratory syndrome coronavirus 2; conditions: mean
[8] = test system: coronavirus OCR43; set-up: method as in PMID 33324406; conditions: LLC-MK2 cells; cited from earlier work
[9] = test system: SARS CoV-2; set-up: method as in PMID 32473310; conditions: VERO-E6 cells; cited from earlier work
[10] = Severe acute respiratory syndrome coronavirus 2, Vero C1008, 96 h
[11] = ratio of cytotoxic to anti-cytopathic effects
[12] = Severe acute respiratory syndrome coronavirus 2, read-out: Average IC50, d3 of incubation, 4000 cells seeded
[13] = Severe acute respiratory syndrome coronavirus 2, read-out: Average IC50, d3 of incubation, 8000 cells seeded
[14] = Severe acute respiratory syndrome coronavirus 2, read-out: Average IC50, d4 of incubation, 4000 cells seeded
[15] = Severe acute respiratory syndrome coronavirus 2, read-out: Average IC50, d4 of incubation, 8000 cells seeded
[16] = Severe acute respiratory syndrome coronavirus 2, read-out: Average IC50, d5 of incubation, 4000 cells seeded
[17] = Severe acute respiratory syndrome coronavirus 2, read-out: Average IC50, d5 of incubation, 8000 cells seeded

## 3'-fluoro-benzyl-spiperone
[1]
  CC50: 27.4 µM

## Nc1cc2c3ccccc3ccc2c2ccccc12 [6-amino-chrysene]
[2]; [10]
  IC50: 11.6 µM
[3]; [11]
  SI (CC50/IC50): 2.84
[4]
  CC50: > 33 µM

## Nc1nc2nn[nH]c2c(=O)[nH]1 [8-Azaguanine]
[2]; [10]
  IC50: 3.72 µM
[3]
  SI (CC50/IC50): 2.79
[4]
  CC50: 10.4 µM

## CCN1CCN(Cc2ccc(-c3cc4c(N[C@H](C)c5ccccc5)ncnc4[nH]3)cc2)CC1 [AEE788]
[2]; [10]
  IC50: 3.94 µM
[5]
  CC50 at 4 days: > 33 µM
[3]; [11]
  SI (CC50/IC50): 8.38

## Cc1cc(O[C@@H](CCC(F)(F)F)c2ccc(C(=O)NCCC(=O)O)cc2)cc(C)c1-c1ccc(C(C)(C)C)cc1 [Adomeglivant]
[4]
  CC50 at 4 days: > 33 µM

## CCN(CC)Cc1cc(Nc2ccnc3cc(Cl)ccc23)ccc1O [Amodiaquine]
[2]; [10]
  IC50: 4.07 µM
[5]
  CC50 at 4 days: 16.8 µM
[3]
  SI (CC50/IC50): 4.12

## CC(=O)[C@]1(N)Cc2c(O)c3c(c(O)c2[C@@H](O[C@H]2C[C@H](O)[C@H](O)CO2)C1)C(=O)c1ccccc1C3=O [Amrubicin]
[2]; [10]
  IC50: 0.33 µM
[3]; [11]
  SI (CC50/IC50): 100.00
[4]
  CC50: > 33 µM

## CC(C)COCC(CN(Cc1ccccc1)c1ccccc1)N1CCCC1 (centres unmarked) [Bepridil]
[5]
  CC50 at 4 days: 23.4 µM

## COc1ccc2c(c1)[C@]1(C[C@H]1c1ccc3c(/C=C/c4ccc(CN5C[C@@H](C)O[C@@H](C)C5)cc4)n[nH]c3c1)C(=O)N2 [CFI-400945]
[4]
  CC50 at 4 days: > 33 µM

## O=C(c1c2ccccc2cc2ccccc12)N1CCC(N2CCC[C@@H](C(=O)N3CCOCC3)C2)CC1 [CP-640186 (hydro-chloride)]
[6]
  CC50: 10.9 µM

## O=C(c1c2ccccc2cc2ccccc12)N1CCC(N2CCC[C@@H](C(=O)N3CCOCC3)C2)CC1 [CP-640186]
[1]
  CC50: 10.2 µM

## CCN(CC)CCCC(C)Nc1ccnc2cc(Cl)ccc12 (centres unmarked) [Chloroquine, chloroquine]
[7]; [12]
  IC50: 11.3 µM
[7]; [13]
  IC50: 8.69 µM
[7]; [14]
  IC50: 13.4 µM
[7]; [15]
  IC50: 13.5 µM
[7]; [16]
  IC50: 13.5 µM
[7]; [17]
  IC50: 17.1 µM

## CCN(CC)CCOc1ccc(C(=C(Cl)c2ccccc2)c2ccccc2)cc1 [Clomiphene citrate]
[5]
  CC50 at 4 days: > 33 µM

## CCN(CC)c1ccc2cc(-c3nc4ccccc4[nH]3)c(=O)oc2c1 [Coumarin 7]
[3]
  IC50: 0.36 µM
  SI (CC50/IC50): 91.67

## C[C@@H]1C[C@@H]([C@H](O)CC2CC(=O)NC(=O)C2)C(=O)[C@@H](C)C1 [Cycloheximide]
[4]
  CC50: 10.2 µM

## Nc1ncnc2c1ncn2[C@@H]1CC[C@@H](O)[C@H]1O [DHCaA]
[6]
  CC50: 15.7 µM

## O=C1OC2(c3ccc(O)cc3Oc3cc(O)ccc32)c2ccccc21 [Fluorescein]
[2]; [10]
  IC50: 0.67 µM
[5]
  CC50 at 4 days: > 33 µM
[3]; [11]
  SI (CC50/IC50): 49.25

## CN1CCN(C2CCN(C(=O)Nc3cc(Oc4ccc(NC(=O)C5(C(=O)Nc6ccc(F)cc6)CC5)c(F)c4)ccn3)CC2)CC1 [Golvatinib (E7050), Golvatinib]
[2]; [10]
  IC50: 5.89 µM
[3]; [11]
  SI (CC50/IC50): 5.60
[4]
  CC50 at 4 days: > 33 µM

## CCCCN(CCCC)CCC(O)c1cc2c(Cl)cc(Cl)cc2c2cc(C(F)(F)F)ccc12 (centres unmarked) [Halofantrine hydrochloride]
[5]
  CC50 at 4 days: > 33 µM

## CCN(CCO)CCCC(C)Nc1ccnc2cc(Cl)ccc12 (centres unmarked) [Hydroxychloroquine, hydroxychloroquine]
[7]; [12]
  IC50: 16.4 µM
[7]; [13]
  IC50: 15.8 µM
[7]; [14]
  IC50: 21 µM
[7]; [15]
  IC50: 25.8 µM
[7]; [17]
  IC50: 43.6 µM

## Cc1cc(O)c2c(=O)c3c(O)cc(O)c4c5c(O)cc(O)c6c(=O)c7c(O)cc(C)c8c1c2c(c34)c(c78)c65 [Hypericin]
[2]; [10]
  IC50: 0.25 µM
[3]; [11]
  SI (CC50/IC50): 5.24
[4]
  CC50: 1.31 µM

## CCCCCCCCCCCCCCOc1ccc(C(=O)O)o1 [KD-023]
[3]
  IC50: 4.04 µM
[3]; [11]
  SI (CC50/IC50): 8.17

## Cc1cccc(C)c1OCC(=O)N[C@@H](Cc1ccccc1)[C@@H](O)C[C@H](Cc1ccccc1)NC(=O)[C@H](C(C)C)N1CCCNC1=O [Lopinavir, lopinavir]
[7]; [12]
  IC50: 9.21 µM
[7]; [13]
  IC50: 7.58 µM
[7]; [14]
  IC50: 11.3 µM
[7]; [15]
  IC50: 12 µM
[7]; [17]
  IC50: 21.1 µM

## CC(C)C[C@@H](C=O)NC(=O)[C@H](CC(C)C)NC(=O)[C@H](CC(C)C)NC(=O)OCc1ccccc1 [MG-132] (Cbz-Leu-Leu-Leu-aldehyde)
[5]
  CC50 at 4 days: 2.9 µM

## Cc1ccc(NC(=O)c2ccc(CN3CCN(C)CC3)cc2)cc1Nc1nc(-c2cccnc2)cs1 [Masitinib (AB1010), Masitinib]
[2]; [10]
  IC50: < 20 µM
[5]
  CC50 at 4 days: > 33 µM

## CC(C)(C)NCc1ccc(Nc2ccnc3cc(Cl)ccc23)cc1O [N-tert-Butylisoquine]
[4]
  CC50 at 4 days: 12.4 µM

## O=C(Nc1ccc([N+](=O)[O-])cc1Cl)c1cc(Cl)ccc1O [Niclosamide]
[2]; [10]
  IC50: 4.1 µM
[5]
  CC50 at 4 days: > 33 µM
[3]
  SI (CC50/IC50): 8.05

## Cc1[nH]c(/C=C2\C(=O)Nc3ccc(S(=O)(=O)Cc4c(Cl)cccc4Cl)cc32)c(C)c1C(=O)N1CCC[C@@H]1CN1CCCC1 [PHA-665752]
[4]
  CC50: > 33 µM

## O=C(c1ccc(OCCN2CCCCC2)cc1)c1c(-c2ccc(O)cc2)sc2cc(O)ccc12 [Raloxifene hydrochloride]
[2]; [10]
  IC50: < 20 µM
[8]
  activity against coronavirus OCR43: active
[5]
  CC50 at 4 days: > 33 µM
[3]
  IC50: 15.4 µM
  SI (CC50/IC50): 2.14
[9]
  activity in phenotypic assay of SARS CoV-2 viral infection: active

## CCC(CC)COC(=O)[C@H](C)N[P@](=O)(OC[C@H]1O[C@@](C#N)(c2ccc3c(N)ncnn23)[C@H](O)[C@@H]1O)Oc1ccccc1 [Remdesivir, remdesivir]
[2]; Severe acute respiratory syndrome coronavirus 2, Vero C1008, read-out: IC50 (%Confluence versus compound concentration), positive control, curve fitting example Fig. 4
  IC50: 1.7 µM
[7]; [12]
  IC50: 2.73 µM
[7]; [13]
  IC50: 1.56 µM
[7]; [14]
  IC50: 3.74 µM
[7]; [15]
  IC50: 2.27 µM
[7]; [16]
  IC50: 4.67 µM
[7]; [17]
  IC50: 2.99 µM

## Cc1cccc(Nc2nc(-c3ccncc3)cs2)c1 [STF-62247]
[1]
  CC50: 31.5 µM

## COc1cc2c(N3CCN(C(=O)Nc4ccc(OC(C)C)cc4)CC3)ncnc2cc1OCCCN1CCCCC1 [Tandutinib (MLN518), Tandutinib]
[3]
  IC50: < 20 µM
[4]
  CC50: > 33 µM

## COc1ccc2cc1Oc1ccc(cc1)C[C@H]1c3cc(c(OC)cc3CCN1C)Oc1c(OC)c(OC)cc3c1[C@H](C2)N(C)CC3 [Tetrandrine (Fanchinine), Tetrandrine]
[5]
  CC50 at 4 days: > 33 µM

## COc1cc(C[C@H]2c3cc(OC)c(OC)cc3CCN2C)c(Oc2cc3c(cc2OC)-c2c(OC)c(OC)cc4c2[C@H](C3)N(C)CC4)cc1OC [Thaliblastine]
[3]
  IC50: 3.87 µM
[3]; [11]
  SI (CC50/IC50): 8.53

## Nc1c[nH]c(=O)c2cc(-c3ccccc3)sc12 [Thieno-pyridone]
[3]
  IC50: 5.26 µM
[3]; [11]
  SI (CC50/IC50): 6.27
[6]
  CC50: > 33 µM

## Nc1nc2c(ncn2[C@@H]2O[C@H](CO)[C@@H](O)[C@H]2O)c(=S)[nH]1 [Thioguanosine]
[4]
  CC50: > 33 µM

## COc1cc(NCc2ccc3nc(N)nc(N)c3c2C)cc(OC)c1OC [Trimetrexate]
[5]
  CC50 at 4 days: 1.99 µM
[3]
  IC50: < 20 µM

## CNCc1ccc(-c2cc(-c3nc(-c4ccc(S(=O)(=O)C(C)C)cc4)cnc3N)on2)cc1 [VE-822]
[3]
  IC50: < 20 µM
[3]; [11]
  SI (CC50/IC50): 3.75
[4]
  CC50 at 4 days: 10 µM

## CC(C)(O)CNc1ncc(-c2ccnc(Nc3ccnc(Cl)c3)n2)c(CC2CC2)n1 [VPS34-IN-1]
[4]
  CC50: 26.8 µM

## Cc1c(O)cccc1C(=O)N[C@@H](CSc1ccccc1)[C@H](O)CN1C[C@H]2CCCC[C@H]2C[C@H]1C(=O)NC(C)(C)C [[…]]
[4]
  CC50: > 33 µM

## OCCNC1CCCc2c1[nH]c1ccc(-c3ccccc3)cc21 (centres unmarked) [casin]
[6]
  CC50: > 33 µM

## Rhodamine-123
[3]
  IC50: 0.8 µM
[3]; [11]
  SI (CC50/IC50): 41.25

Source: publication PMC9279437, “Cytopathic SARS-CoV-2 screening on VERO-E6 cells in a large-scale repurposing effort” (Scientific Data, 2022)
